This is an account of results in USRE49223E1, “Water-soluble fluorescence compound and method for preparing the same” (SNU R&DB FOUNDATION, priority 2011, dated 2022).

Data set [1] relates to osteosarcoma cell line (U2OS). The data set can be described thus: Western blotting test of cell extinction and damage markers (Caspase-3, PARP). Conditions: U2OS osteosarcoma cells; 10 μM (FIG. 15). The format is cell-based. The method, then: (§1) After a certain period of time, the degree of cell extinction is evaluated by examining the degree of expression of extinction and damage of a specific factor by using Western Blotting Test and the result is shown in FIG. 15.

Data set [2] in a line: Excitation and emission maxima by fluorescent spectrophotometer. The format is physicochemical. Conditions: solvent: Ref. Ex. 1 methanol, 2 ethanol, 3 n-propanol, 4 iso-propanol, 5 n-butanol, 6 DMSO. How it is done: UV absorption of the final fluorescent compound is determined by using a UV-VISIBLE spectrophotometer (Perkin Elmer, USA). Maximum values of excitation and emission are determined by using a fluorescent spectrophotometer (PTI, USA).
(§2) Except for conducting the photochemical reaction in the presence of an organic solvent such as ethanol (Reference Example 2), n-propanol (Reference Example 3), iso-propanol (Reference Example 4), n- butanol (Reference Example 5) or DMSO (Reference Example 6), respectively, the fluorescent compound is obtained from trans-resveratrol in the same manner as Reference Example 1.

A short description of data set [3]: Fluorescence quantum yield (relative vs rhodamin 6G; absolute PL quantum yield system). The format is physicochemical. Conditions: solvent: Ref. Ex. 1 methanol, 2 ethanol, 3 n-propanol, 4 iso-propanol, 5 n-butanol, 6 DMSO; for Absolute quantum yield: absolute PL quantum yield measurement system; for Relative quantum yield: relative to rhodamin 6G. The method, then:
The absolute quantum yield is determined by using an absolute PL quantum yield measurement system (QE-1000, Otsuka Electronics, Japan). The relative quantum yield is determined by measuring the absorbance and emission intensity for each five concentrations for one solvent, determining the slope of said measured values, and comparing the slope with that of rhodamin 6G (the quantum yield of rhodamin 6G in ethanol is 0.95).
as §2

The subject of data set [4] is breast epithelial cell line. The data set can be described thus: Cytomorphology test (cytotoxicity). To be noted: breast epithelial cells, cultured about 72 hours, microscopic examination (FIG. 13). The format is cell-based. How it is done: (§3) In the presence of a test compound or a comparative compound, a cell line is cultured for a certain period of time (about 72 hours) and then a cytotoxicity test is conducted. As a control group, a blank test is conducted in the same manner as above without adding any compound including the test compound and the comparative compound.

The test system of another data set is breast epithelial cell. The data set can be described thus: Trypan blue exclusion test (cytotoxicity). To be noted: both test concentrations 1 μM and 10 μM (FIG. 14). The data set is classed as cell-based. The method, then: as §3
The test system of data set [5] is breast epithelial cell line. The data set can be described thus: Western blotting test of cell extinction and damage markers (Caspase-3, PARP). The format is cell-based. Conditions: 1, 10 and 100 μM (FIG. 15). How it is done:
as §1

Data set [6] can be described thus: Irradiation with natural light (photochemical stability). The data set is classed as physicochemical. Conditions: natural light for a long period of time. From the text: Meanwhile, prior art (PCT/EP01/06103) discloses using polydatin of formula 5 above as sunblock.
The conditions of data set [7]: in ethanol; reference standard; cited from earlier work.
[8] abbreviates: listed as Reference Example 2, in Ethanol solvent.
The mark [9] stands for this setting: listed as Reference Example 3, in n-Propanol solvent.
The mark [10] stands for this setting: listed as Reference Example 4, in iso-Propanol solvent.
[11] abbreviates: listed as Reference Example 5, in n-Butanol solvent.
Setting [12] is: listed as Reference Example 6, in DMSO solvent.

Consider `COc1cc([C@@H]2c3cc4c(cc3[C@@H](O[C@@H]3O[C@@H]5CO[C@@H](C)O[C@H]5[C@H](O)[C@H]3O)[C@H]3COC(=O)[C@H]23)OCO4)cc(OC)c1O` [Etoposide], for which the “Western blot peaks resulting from cell extinction and damage” value in data set [1] was “significantly remarkable peak at 17 kDa, 19 kDa and 89 kDa positions”.
`CC(=O)/C=C/c1ccc2cc(O)cc(O)c2c1` [Reference Example 1, (E)-4-(6,8-dihydroxynaphthalen-2-yl) but-3-en-2-one]: the Emission in data set [2] came out at 547 nm; in data set [2] (setting [8]), 540 nm; in data set [2] (setting [9]), 534 nm; in data set [2] (setting [10]) it was 525 nm; in data set [2] (setting [11]), 536 nm; in data set [2] (setting [12]), 497 nm. Further, in data set [2], the Excitation was 390 nm. Further, the Absolute quantum yield was found to be 0.058 in data set [3]; 0.145 in data set [3] (setting [8]); 0.212 in data set [3] (setting [9]); 0.311 in data set [3] (setting [10]); 0.254 in data set [3] (setting [11]); 0.439 in data set [3] (setting [12]). Moreover, the Relative quantum yield in data set [3] was found to be 0.035; in data set [3] (setting [8]), 0.103; in data set [3] (setting [9]), 0.155; in data set [3] (setting [10]), 0.247; in data set [3] (setting [11]), 0.200; in data set [3] (setting [12]), 0.523.
Regarding `CC(=O)/C=C/c1ccc2cc(O[C@@H]3O[C@H](CO)[C@@H](O)[C@H](O)[C@H]3O)cc(O)c2c1` [Resveratrone glucoside, (E)-4-(8-hydroxy-6-(((2S,3R,4S,5S,6R)-3,4,5-trihydroxy-6-(hydroxymethyl)tetrahydro-2H-pyran-2-yl)oxy)naphthalen-2-yl)but-3-en-2-one], the “cytomorphology and number change of the cultured cell vs control group” value in data set [4] is recorded as “no significant difference from the control group”. In addition, the “number of cells alive vs control group” value with breast epithelial cell is “number of cells similar to that of the control group”. Besides, the “Western blot peaks resulting from cell extinction and damage” value in data set [5] was “no peak at 17 kDa, 19 kDa and 89 kDa positions”.
On to `OC[C@H]1O[C@@H](Oc2cc(O)cc(/C=C/c3ccc(O)cc3)c2)[C@H](O)[C@@H](O)[C@@H]1O` [polydatin, resveratrol 3-O-β-glucoside], for which the “photochemical reaction product after irradiation” value in data set [6] is given as “any photochemical reaction product could not be found”.
`CCN=c1cc2oc3cc(NCC)c(C)cc3c(-c3ccccc3C(=O)OCC)c-2cc1C.Cl` [rhodamin 6G]: the quantum yield in data set [7] was 0.95.
